In patent US6562819B2, “Compounds for inhibition of ceramide-mediated signal transduction” (The Regents of the University of California, priority 1994, dated 2003):
Like-named read-outs stand apart in the source and are kept apart here.

Legend:
TNF-α production [1] = test: ELISA for TNF-α production by LPS stimulated human monocytes; format: cell-based; conditions: Concentration of compound which inhibited the product of TNFα by 50% of control, read-out: TNFαIC50
Protocol: Peripheral blood mononuclear cells were isolated from normal human blood on Hypaque-Ficoll density gradients. A portion of the isolated cells were further purified by adherence to gelatin coated flasks.
100 μl aliquots of monocytes were placed onto 96 well microtiter plates at a density of 5×10^5 cells/ml in RPMI-1640 medium containing 10% fetal bovine serum. After incubation for 24 hrs., various concentrations of the test compounds (FIG. 5) were added to the plated cells in a volume of 100 μl and incubated for 1 hr. After incubation, 1 μg/ml of LPS was added to each well.
18 hrs. after exposure of the plated cells to LPS, 100 μl of medium was collected from each well and assayed (by ELISA) for release of TNF-α, using recombinant human TNF as a standard. The sensitivity of the assay ranged from 10-100 pg/ml.

TNF-α production [2] = test: LPS induced TNF-α production by human macrophages; format: cell-based; conditions: 0.1-1000 μM; result in words
Protocol: Human macrophages were cultured in 96 well microtiter plates and incubated with LPS. μAliquots of the stimulated cells were then incubated with, respectively, 0.1, 1, 10, 100 or 1000 μM of 1I-49, compound 37 and a commercially available isoquinoline (6,7-dimethoxy-1(2H)-isoquinoline from μAldrich Chemical; labelled S52-626-6 in FIG. 10) which, like the compounds of the invention, has an oxygen ortho to a ring nitrogen but, unlike the compounds of the invention, lacks a side chain substituent as described above (1L-49 is representative of the isoquinolone compounds of the invention having the side chain substituents described elsewhere above). The inhibitory efficacy of each compound was measured as a function of TNF-α reduction in μg/ml.

Row | Compound | IC50 (TNF-α production [1]; Monocyte) [µM] | melting point | IC50 (TNF-α production [1]) [µM] | inhibition of LPS induced TNF-α production (TNF-α production [2])
1 | CCCCCCn1c(=O)c2[nH]c(=O)[nH]c2n(C)c1=O [Compound 24, 1-n-Hexyl-3-methyluric Acid] | 50 | > 295 °C (dec.) | – | –
2 | Cn1c(=O)[nH]c(=O)c2[nH]c(S)nc21 [Compound 25, 3-Methyl-8-thiouric Acid] | > 200 | > 320 °C | – | –
3 | CCCn1c(=O)n(CCCC(=O)OCC)c(=O)c2c1ncn2C [Compound 31, ethyl 4-(2,3,6,7-tetrahydro-2,6-dioxo-7-methyl-3-n-propyl-1H-purin-1-yl)butonoic acid] | – | – | 5 | –
4 | COc1cc2cc[nH]c(=O)c2cc1OC [S52, 626-6, 6,7-dimethoxy-1(2H)-isoquinoline] | – | – | – | mild inhibitory activity
5 | CCOC(=O)CCCn1c(=O)c2ccccc2n(C)c1=O [Compound 52, Ethyl 1-Methyl-1,4-dihydro-2,4-dioxo-3(2H)-quinazolinebutanoate] | 55 | – | – | –
